These results are taken from patent US20210300940A1 (Merck Patent GmbH, priority 2018, published 2021).

Counter-ions that a name gives are not always drawn.

One experiment addresses T1, TLR7 (Homo sapiens, UniProt Q9NYK1).
T1 construct: expressed in transfected cells; host or cells: HEK/293 cells carrying TLR7 and an NF-kB luciferase reporter
T1 sequence (Q9NYK1 27-1049): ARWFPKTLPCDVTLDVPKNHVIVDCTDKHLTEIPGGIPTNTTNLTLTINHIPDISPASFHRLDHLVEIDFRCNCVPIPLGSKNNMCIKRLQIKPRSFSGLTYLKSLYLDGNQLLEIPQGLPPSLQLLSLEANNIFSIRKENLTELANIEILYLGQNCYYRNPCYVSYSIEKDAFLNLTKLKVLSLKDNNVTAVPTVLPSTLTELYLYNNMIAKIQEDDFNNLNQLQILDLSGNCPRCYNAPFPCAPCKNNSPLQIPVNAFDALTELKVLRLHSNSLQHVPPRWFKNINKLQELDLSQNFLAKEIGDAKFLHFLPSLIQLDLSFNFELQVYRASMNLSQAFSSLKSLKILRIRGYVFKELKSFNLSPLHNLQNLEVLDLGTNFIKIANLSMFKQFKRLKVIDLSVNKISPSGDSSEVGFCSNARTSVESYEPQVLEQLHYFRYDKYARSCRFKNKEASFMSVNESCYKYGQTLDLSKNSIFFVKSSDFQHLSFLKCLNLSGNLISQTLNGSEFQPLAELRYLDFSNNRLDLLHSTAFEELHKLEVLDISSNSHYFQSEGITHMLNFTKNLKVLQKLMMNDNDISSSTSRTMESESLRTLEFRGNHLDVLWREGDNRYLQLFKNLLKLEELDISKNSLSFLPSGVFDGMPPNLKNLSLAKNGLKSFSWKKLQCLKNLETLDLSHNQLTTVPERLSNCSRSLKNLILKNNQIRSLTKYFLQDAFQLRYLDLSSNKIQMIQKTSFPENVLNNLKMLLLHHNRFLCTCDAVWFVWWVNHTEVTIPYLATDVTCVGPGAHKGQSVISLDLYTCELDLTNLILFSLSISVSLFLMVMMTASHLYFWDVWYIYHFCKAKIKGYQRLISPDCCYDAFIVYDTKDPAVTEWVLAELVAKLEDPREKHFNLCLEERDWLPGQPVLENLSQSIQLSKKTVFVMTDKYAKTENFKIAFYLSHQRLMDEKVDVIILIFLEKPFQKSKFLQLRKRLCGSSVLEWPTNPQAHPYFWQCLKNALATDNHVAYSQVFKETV
The experiment is described as follows: HEK/293 TLR7 Cell Assay. It is filed as cell-based. The settings on record: TLR7/NFKb HEK cells, R848 agonist 10 uM final concentration, Steady-Glo readout; read-out: TLR7 potency. The method, boiled down:
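Compounds added to HEK cells expressing TLR7 with an NFκB reporter 30 min ahead of 10 uM R848 challenge; luciferase signal (Steady-Glo) measured after 5 h, cells having been seeded 24 h earlier at 5000 per well.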

The target of another experiment is T2, TLR8 (Homo sapiens, UniProt Q9NR97).
T2 construct: expressed in transfected cells; host or cells: HEK/293 reporter cells (NF-kB luciferase)
T2 sequence (Q9NR97 27-1041): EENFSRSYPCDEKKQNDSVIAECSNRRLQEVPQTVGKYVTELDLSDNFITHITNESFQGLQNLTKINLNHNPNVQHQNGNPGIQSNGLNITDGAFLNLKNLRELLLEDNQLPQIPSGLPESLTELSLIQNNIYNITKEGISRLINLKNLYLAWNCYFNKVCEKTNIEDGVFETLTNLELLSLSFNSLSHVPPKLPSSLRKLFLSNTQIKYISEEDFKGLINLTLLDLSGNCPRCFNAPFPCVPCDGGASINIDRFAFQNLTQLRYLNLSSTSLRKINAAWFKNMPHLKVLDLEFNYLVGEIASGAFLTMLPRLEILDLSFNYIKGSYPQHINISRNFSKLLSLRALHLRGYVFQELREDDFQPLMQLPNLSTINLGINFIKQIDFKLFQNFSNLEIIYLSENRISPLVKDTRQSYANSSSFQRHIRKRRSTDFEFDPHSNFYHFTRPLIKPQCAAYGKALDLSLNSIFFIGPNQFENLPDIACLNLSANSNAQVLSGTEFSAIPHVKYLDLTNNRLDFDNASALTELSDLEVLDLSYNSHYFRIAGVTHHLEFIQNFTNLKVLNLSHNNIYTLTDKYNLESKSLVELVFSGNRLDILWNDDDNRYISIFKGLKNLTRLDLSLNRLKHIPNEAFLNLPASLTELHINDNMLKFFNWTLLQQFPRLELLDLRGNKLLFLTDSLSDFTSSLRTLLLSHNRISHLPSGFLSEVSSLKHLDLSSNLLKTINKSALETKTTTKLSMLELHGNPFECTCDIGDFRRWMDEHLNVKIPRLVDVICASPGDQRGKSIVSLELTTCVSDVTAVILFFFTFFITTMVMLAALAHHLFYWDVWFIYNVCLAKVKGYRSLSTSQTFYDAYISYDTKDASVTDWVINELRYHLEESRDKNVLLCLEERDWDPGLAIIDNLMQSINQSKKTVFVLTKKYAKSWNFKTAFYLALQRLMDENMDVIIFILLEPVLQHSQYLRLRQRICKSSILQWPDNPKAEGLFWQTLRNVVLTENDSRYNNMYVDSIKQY
Briefly: HEK/293 TLR8 Cell Assay. It counts as cell-based. Conditions: HEK cells, R848 agonist 30 uM final concentration, Steady-Glo readout; read-out: TLR8 potency.

For `C[C@H]1C[C@@H](NC(=O)CC2(O)CCN(C)CC2)CN(c2ccc(C(F)(F)F)c3ncccc23)C1` [Example 84, 2-(4-hydroxy-1-methylpiperidin-4-yl)-N-[(3R,5S)-5-methyl-1-[8-(trifluoromethyl)quinolin-5-yl]piperidin-3-yl]acetamide], the IC50 on TLR7 and on TLR8 was under 75 nM each time.

For `Cc1ccc(N2C[C@@H](C)C[C@@H](NC(=O)CC3(O)CCN(C)CC3)C2)c2cccnc12` [Example 85, 2-(4-hydroxy-1-methylpiperidin-4-yl)-N-[(3R,5S)-5-methyl-1-(8-methylquinolin-5-yl)piperidin-3-yl]acetamide hydrochloride], the IC50 at TLR7 and on TLR8 was under 75 nM in each case.

For `Cc1ccc(N2C[C@@H](C)C[C@@H](NC(=O)CN3CCN(C)CC3)C2)c2cccnc12` [Example 86, N-[(3R,5S)-5-methyl-1-(8-methylquinolin-5-yl)piperidin-3-yl]-2-(4-methylpiperazin-1-yl)acetamide], the IC50 was 75 to 150 nM at TLR7 and under 75 nM on TLR8.

Take `Cc1ccc(N2C[C@H](NC(=O)CC3(O)CCN(C)CC3)C[C@H](C(F)(F)F)C2)c2cccnc12` [Example 87, 2-(4-hydroxy-1-methylpiperidin-4-yl)-N-[(3R,5S)-1-(8-methylquinolin-5-yl)-5-(trifluoromethyl)piperidin-3-yl]acetamide]: the IC50 on TLR7 and at TLR8 was under 75 nM in each case.

On to `C[C@H]1C[C@@H](NC(=O)CC2(F)CCN(C)CC2)CN(c2ccc(C#N)c3ncncc23)C1` [Example 88, N-[(3R,5S)-1-(8-cyanoquinazolin-5-yl)-5-methylpiperidin-3-yl]-2-(4-fluoro-1-methylpiperidin-4-yl)acetamide], for which the IC50 at TLR7 and at TLR8 was under 75 nM each time.

For `C[C@H]1C[C@@H](NC(=O)CN2CCN(C)CC2)CN(c2ccc(C#N)c3ncncc23)C1` [Example 89, N-[(3R,5S)-1-(8-cyanoquinazolin-5-yl)-5-methylpiperidin-3-yl]-2-(4-methylpiperazin-1-yl)acetamide], the IC50 at TLR7 is under 75 nM; at TLR8, over 150 nM.

For the molecule `C[C@H]1C[C@@H](NC(=O)C[C@H]2[C@@H]3C[C@H]2CN(C)C3)CN(c2ccc(C(F)(F)F)c3ncccc23)C1` [Example 106, N-[(3R,5S)-5-methyl-1-[8-(trifluoromethyl)quinolin-5-yl]piperidin-3-yl]-2-[(1R,5S,6s)-3-methyl-3-azabicyclo[3.1.1]heptan-6-yl]acetamide], the IC50 on TLR7 and on TLR8 was under 75 nM in each case.

As to `C[C@@H]1C[C@H](NC(=O)C[C@@H]2[C@@H]3C[C@H]2CN(C)C3)CN(c2ccc(C(F)(F)F)c3ncccc23)C1` [Example 107, N-((3S,5R)-5-methyl-1-(8-(trifluoromethyl)quinolin-5-yl)piperidin-3-yl)-2-((1R,5S,6r)-3-methyl-3-azabicyclo[3.1.1]heptan-6-yl)acetamide], the IC50 at TLR7 and at TLR8 was under 75 nM each time.

Turning to `Cc1ccc(N2C[C@@H](C)C[C@@H](NC(=O)CC3CCN(C(C)C)CC3)C2)c2cccnc12` [Example 108, 2-(1-Isopropyl-piperidin-4-yl)-N-[(3R,5S)-5-methyl-1-(8-methyl-quinolin-5-yl)-piperidin-3-yl]-acetamide], the IC50 at TLR7 and on TLR8 was under 75 nM in each case.

For `Cc1ccc(N2C[C@H](NC(=O)CC3CCN(C(C)C)CC3)C[C@H](C(F)(F)F)C2)c2cccnc12` [Example 109, 2-(1-Isopropyl-piperidin-4-yl)-N-[(3R,5S)-1-(8-methyl-quinolin-5-yl)-5-trifluoromethyl-piperidin-3-yl]-acetamide], the IC50 on TLR7 is over 150 nM; on TLR8, 75 to 150 nM.

For `Cc1ccc(N2C[C@H](NC(=O)CC3CCN(C(C)C)CC3)CC(F)(F)C2)c2cccnc12` [Example 110, N—[(R)-5,5-Difluoro-1-(8-methyl-quinolin-5-yl)-piperidin-3-yl]-2-(1-isopropyl-piperidin-4-yl)-acetamide], the IC50 was under 75 nM at TLR7 and over 150 nM at TLR8.

Consider `Cc1ccc(N2C[C@@H](NC(=O)CC3CCN(C(C)C)CC3)CC(F)(F)C2)c2cccnc12` [Example 111, N—[(S)-5,5-Difluoro-1-(8-methyl-quinolin-5-yl)-piperidin-3-yl]-2-(1-isopropyl-piperidin-4-yl)-acetamide], for which the IC50 at TLR7 and on TLR8 was over 150 nM throughout.

`Cc1c(F)cc(N2C[C@@H](C)C[C@@H](NC(=O)CC3C4CC3CN(C)C4)C2)c2cccnc12` (stereo partly drawn) [Example 112, N-[(3R,5S)-1-(7-Fluoro-8-methyl-quinolin-5-yl)-5-methyl-piperidin-3-yl]-2-(3-methyl-3-aza-bicyclo[3.1.1]hept-6-yl)-acetamide]: the IC50 on TLR7 and at TLR8 was under 75 nM in each case.

Regarding `Cc1c(F)cc(N2C[C@H](NC(=O)CC3C4CC3CN(C)C4)C[C@H](C(F)(F)F)C2)c2cccnc12` (stereo partly drawn) [Example 113, N-[(3R,5S)-1-(7-Fluoro-8-methyl-quinolin-5-yl)-5-trifluoromethyl-piperidin-3-yl]-2-(3-methyl-3-aza-bicyclo[3.1.1]hept-6-yl)-acetamide], the IC50 was 75 to 150 nM on TLR7 and under 75 nM at TLR8.

Turning to `C[C@H]1C[C@@H](NC(=O)CC2(F)CCNCC2)CN(c2ccc(C#N)c3nccnc23)C1` [Example 114, N-[(3R,5S)-1-(8-cyanoquinoxalin-5-yl)-5-methylpiperidin-3-yl]-2-(4-fluoropiperidin-4-yl)acetamide], the IC50 at TLR7 and at TLR8 was under 75 nM each time.

`Cc1c(F)cc(N2C[C@H](NC(=O)[C@@H]3CCCN3)C[C@H](C(F)(F)F)C2)c2cccnc12` [Example 115, (2S)—N-[(3R,5S)-1-(7-fluoro-8-methylquinolin-5-yl)-5-(trifluoromethyl)piperidin-3-yl]pyrrolidine-2-carboxamide]: the IC50 at TLR7 was over 150 nM; at TLR8, under 75 nM.

As for `C[C@H]1C[C@@H](NC(=O)[C@@H]2C[C@H](O)CN2)CN(c2ccc(C#N)c3nccnc23)C1` [Example 116, (2S,4S)—N-[(3R,5S)-1-(8-cyanoquinoxalin-5-yl)-5-methylpiperidin-3-yl]-4-hydroxypyrrolidine-2-carboxamide], the IC50 is over 150 nM on TLR7 and under 75 nM at TLR8.

As to `O=C(CC1(F)CCNCC1)N[C@@H]1C[C@H](C(F)(F)F)CN(c2ccc(C(F)(F)F)c3ncccc23)C1` [Example 117, 2-(4-fluoropiperidin-4-yl)-N-[(3R,5S)-5-(trifluoromethyl)-1-[8-(trifluoromethyl)quinolin-5-yl]piperidin-3-yl]acetamide], the IC50 at TLR7 and at TLR8 was under 75 nM in each case.
